Assay results from BindingDB's records for doi:10.1021/jm00055a002 (Eli Lilly, 1993).
Where a SMILES comes first, the peptide text is derived from it. [ ]: non-standard residue; d: D form. The star is where a group is joined. dHpg = N[C@@H](C(=O)O)c1ccc(O)cc1; Boc = CC(C)(C)OC(=O)*

target: Tissue-type plasminogen activator (Homo sapiens) (UniProt P00750); assay: Compound was tested in vitro for inhibitory activity against t-PA (tissue plasminogen activator)
Sequence (P00750 whole entry, looked up): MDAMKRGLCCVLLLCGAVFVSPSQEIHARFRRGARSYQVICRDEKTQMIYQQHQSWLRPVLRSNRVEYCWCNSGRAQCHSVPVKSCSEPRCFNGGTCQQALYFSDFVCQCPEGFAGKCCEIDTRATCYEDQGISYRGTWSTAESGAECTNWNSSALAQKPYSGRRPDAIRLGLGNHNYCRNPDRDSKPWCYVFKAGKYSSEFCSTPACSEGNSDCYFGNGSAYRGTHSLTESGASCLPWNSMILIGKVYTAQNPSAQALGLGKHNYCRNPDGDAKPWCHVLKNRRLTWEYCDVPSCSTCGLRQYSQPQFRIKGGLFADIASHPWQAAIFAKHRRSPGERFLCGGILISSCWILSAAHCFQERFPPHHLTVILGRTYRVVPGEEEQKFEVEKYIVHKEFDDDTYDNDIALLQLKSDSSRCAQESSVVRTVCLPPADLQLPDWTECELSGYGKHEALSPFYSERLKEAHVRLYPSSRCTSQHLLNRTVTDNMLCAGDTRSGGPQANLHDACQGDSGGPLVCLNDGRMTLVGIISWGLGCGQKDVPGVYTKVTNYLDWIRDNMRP

IC50 | SMILES
31 µM | CC(C)(C)OC(=O)NC(C(=O)N1CCC[C@H]1C(=O)NC(C=O)CCCNC(=N)N)c1ccc(Cl)c(Cl)c1 (stereo not given in full) [{1-(3,4-Dichloro-phenyl)-2-[2-(1-formyl-4-guanidino-butylcarbamoyl)-pyrrolidin-1-yl]-2-oxo-ethyl}-carbamic acid tert-butyl ester]
20 µM | CC(C)(C)OC(=O)N[C@@H](C(=O)N1CCC[C@H]1C(=O)NC(C=O)CCCNC(=N)N)c1cccc2ccccc12 (stereo not given in full) [{2-[2-(1-Formyl-4-guanidino-butylcarbamoyl)-pyrrolidin-1-yl]-1-naphthalen-1-yl-2-oxo-ethyl}-carbamic acid tert-butyl ester]
15 µM | CC(C)(C)OC(=O)NC(C(=O)N1CCC[C@H]1C(=O)NC(C=O)CCCNC(=N)N)c1cccc(C(F)(F)F)c1 (stereo not given in full) [[2-[2-(1-Formyl-4-guanidino-butylcarbamoyl)-pyrrolidin-1-yl]-2-oxo-1-(3-trifluoromethyl-phenyl)-ethyl]-carbamic acid tert-butyl ester]
860 µM | CO[C@H](C(=O)N1CCC[C@H]1C(=O)NC(C=O)CCCNC(=N)N)c1ccccc1 (stereo not given in full) [1-(2-Methoxy-2-phenyl-acetyl)-pyrrolidine-2-carboxylic acid (1-formyl-4-guanidino-butyl)-amide]
42 µM | CN[C@@H](C(=O)N1CCC[C@H]1C(=O)N[C@H](C=O)CCCNC(=N)N)c1ccccc1 [(S)-1-((R)-2-Methylamino-2-phenyl-acetyl)-pyrrolidine-2-carboxylic acid ((S)-1-formyl-4-guanidino-butyl)-amide]
12 µM | CC(C)(C)OC(=O)N[C@@H](C(=O)N1CCC[C@H]1C(=O)NC(C=O)CCCNC(=N)N)c1ccc2ccccc2c1 (stereo not given in full) [{2-[2-(1-Formyl-4-guanidino-butylcarbamoyl)-pyrrolidin-1-yl]-1-naphthalen-2-yl-2-oxo-ethyl}-carbamic acid tert-butyl ester]

SMILES | IC50
CC(C)(C)OC(=O)N[C@@H](C(=O)N1CCC[C@H]1C(=O)N[C@H](C=O)CCCN=C(N)N)c1ccc(F)cc1 [{1-(4-Fluoro-phenyl)-2-[2-(1-formyl-4-guanidino-butylcarbamoyl)-pyrrolidin-1-yl]-2-oxo-ethyl}-carbamic acid tert-butyl ester] | 18 µM
CC(C)(C)OC(=O)N[C@H](C(=O)N1CCC[C@H]1C(=O)N[C@H](C=O)CCCN=C(N)N)c1ccc(F)cc1 [{1-(4-Fluoro-phenyl)-2-[2-(1-formyl-4-guanidino-butylcarbamoyl)-pyrrolidin-1-yl]-2-oxo-ethyl}-carbamic acid tert-butyl ester] | 91 µM

target: Tissue-type plasminogen activator (Homo sapiens) (UniProt P00750); assay: Inhibitory activity against tissue-type plasminogen activator

SMILES | IC50
N=C(N)NCCC[C@@H](C=O)NC(=O)[C@@H]1CCCN1C(=O)C1CCc2ccccc2N1 (stereo not given in full) [1-(1,2,3,4-Tetrahydro-quinoline-2-carbonyl)-pyrrolidine-2-carboxylic acid (1-formyl-4-guanidino-butyl)-amide] | 660 µM
CC(C)(C)OC(=O)N[C@@H](C(=O)N1CCC[C@H]1C(=O)N[C@H](C=O)CCCN=C(N)N)c1ccc(O)cc1 [[2-[2-(1-Formyl-4-guanidino-butylcarbamoyl)-pyrrolidin-1-yl]-1-(4-hydroxy-phenyl)-2-oxo-ethyl]-carbamic acid tert-butyl ester] (Boc-[dHpg]-Pro-Arg-aldehyde) | 16 µM
